The values that follow come from patent publication US20250136612A1, “4',5'-DIHYDROSPIRO[PIPERIDINE-4,7'-THIENO[2,3-C]PYRAN] DERIVATIVES AS INHIBITORS OF APOL1 AND METHODS OF USING SAME” (VERTEX PHARMACEUTICALS INCORPORATED, priority 2022, published 2025).

In this experiment the target is T1, APOL1 (Homo sapiens, UniProt O14791).
T1 sequence (O14791 1-398 S342G/I384M): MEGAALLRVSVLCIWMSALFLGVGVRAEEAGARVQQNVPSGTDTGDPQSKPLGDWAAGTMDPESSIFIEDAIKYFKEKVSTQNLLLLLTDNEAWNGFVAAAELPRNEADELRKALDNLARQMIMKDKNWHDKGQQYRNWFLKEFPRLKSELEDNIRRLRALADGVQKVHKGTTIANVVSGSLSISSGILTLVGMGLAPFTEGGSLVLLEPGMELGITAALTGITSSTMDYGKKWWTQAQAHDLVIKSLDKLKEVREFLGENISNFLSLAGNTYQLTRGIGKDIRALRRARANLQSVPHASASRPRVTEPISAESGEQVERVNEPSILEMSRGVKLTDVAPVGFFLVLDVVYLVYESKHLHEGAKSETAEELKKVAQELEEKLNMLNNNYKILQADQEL
In words: MultiTox-Fluor Multiplex Cytotoxicity Assay in tet-inducible APOL1 T-REx-HEK293 cells. The experiment is classed as cell-based. The following applies: 50 ng/mL tet, 24 hours, ratio of dead to live cells, read-out: IP50 (i.e., IC50 for cell proliferation). As for the experimental part: The MultiTox-Fluor Multiplex Cytotoxicity Assay is a single-reagent-addition, homogeneous, fluorescence assay that measures the number of live and dead cells simultaneously in culture wells. The assay measures cell viability and cytotoxicity by detecting two distinct protease activities. The live-cell protease activity is restricted to intact viable cells and is measured using a fluorogenic, cell-permeant peptide glycyl-phenylalanylamino fluorocoumarin (GF-AFC) substrate. The substrate enters intact cells, where it is cleaved to generate a fluorescent signal proportional to the number of living cells. […] A second, cell-impermeant, fluorogenic peptide substrate (bis-AAF-R110 Substrate) is used to measure dead-cell protease that has been released from cells that have lost membrane integrity. A ratio of dead to live cells is used to normalize data.
Briefly, the tet-inducible transgenic APOL1 T-REx-HEK293 cell lines were incubated with 50 ng/mL tet to induce APOL1 in the presence of 3-(2-(4-fluorophenyl)-1H-indol-3-yl)-N-((3S,4R)-4-hydroxy-2-oxopyrrolidin-3-yl)propenamide at 10.03, 3.24, 1.13, 0.356, 0.129, 0.042, 0.129, 0.0045, 0.0015, 0.0005 μM in duplicate for 24 hours in a humidified 37° C. incubator. The MultiTox reagent was added to each well and placed back in the incubator for an additional 30 minutes. The plate was read on the EnVision plate reader. A ratio of dead to live cells was used to normalize, and data was imported, analyzed, and fit using Genedata Screener (Basel, Switzerland) software. Data was normalized using percent of control, no tet (100% viability), and 50 ng/mL tet treated (0% viability),and fit using Smart Fit. The reagents, methods, and complete protocol for the MultiTox assay are described below.
Human embryonic kidney (HEK293) cell lines containing a tet-inducible expression system (T-REx™; Invitrogen, Carlsbad, CA) and Adeno-associated virus site 1 pAAVS1-Puro-APOL1 G0 or pAAVS1-Puro-APOL1 G1 or pAAVS1-Puro-APOL1 G2 Clones G0 DC2.13, G1 DC3.25, and G2 DC4.44 were grown in a T-225 flask at ˜90% confluency in cell growth media (DMEM, 10% Tet-free FBS, 2 mM L-glutamine, 100 Units/mL penicillin-streptomycin, 5 μg/mL blasticidin S HCl, 1 μg/mL puromycin dihydrochloride). Cells were washed with DPBS and then trypsinized to dissociate from the flask. Media was used to quench the trypsin, cells were then pelleted at 200 g and resuspended in fresh cell assay media (DMEM, 2% Tet-free FBS, 2 mM L-glutamine, 100 Units/mL penicillin-streptomycin). Cells were counted and diluted to 1.17×10^6 cells/mL. 20 μL of cells (23,400/well) were dispensed in every well of a 384-well Poly-D-Lysine coated plate using the Multidrop dispenser. The plates were then incubated at room temperature for one hour.
Tetracycline is needed to induce APOL1 expression. 1 mg/mL tet stock in water was diluted to 250 ng/mL (5×) in cell assay media. 60 μL of cell assay media (no tet control) was dispensed in columns 1 and 24, and 60 μL of 5×tet in 384-PP-round bottom plate was dispensed in columns 2 to 23 with the Multidrop dispenser.
Assay ready plates from the Global Compound Archive were ordered using template 384_APOL1Cell_DR10n2_50 uM_v3. Compounds were dispensed at 200 nL in DMSO. The final top concentration was 10 μM with a 10 point 3-fold dilution in duplicate in the MultiTox assay.
20 μL was transferred from the 5×tet plate to the ARP and mixed, then 5 μL of 5×tet and the compounds were transferred to the cell plate and mixed using the Bravo. The cell plate was placed in the humidified 37° C. 5% CO2 incubator for 24 hours.
The MultiTox-Fluor Multiplex Cytotoxicity Assay was performed in accordance with the manufacturer's protocol. After cells were incubated with tet and compound for 24 hours, 25 μL of 1×MultiTox reagent was added to each well using the Multidrop dispenser; the plates were placed on a plate shaker (600 rpm) for 2 minutes, then centrifuged briefly and placed back in the 37° C. incubator for 30 minutes. […]
On to `CN1Cc2ccc(-n3cc([C@@H]4C[C@]5(CCN4)OCCc4cc(Cl)sc45)nn3)cc2C1=O` [Compound 62], for which the IC50 was 0.1 to 0.5 µM. For the molecule `Clc1cc2c(s1)[C@@]1(CCN[C@H](c3cn(-c4cccnc4)nn3)C1)OCC2` [Compound 63], the IC50 is 0.1 to 0.5 µM. For the molecule `Clc1cc2c(s1)[C@@]1(CCN[C@H](c3cn(-c4ccncc4)nn3)C1)OCC2` [Compound 64], the IC50 was 0.1 to 0.5 µM. Consider `Oc1ccc(-n2cc([C@@H]3C[C@]4(CCN3)OCCc3cc(Cl)sc34)nn2)cc1` [Compound 65], for which the IC50 is 0.1 to 0.5 µM. Next, `COc1ccccc1-n1cc([C@@H]2C[C@]3(CCN2)OCCc2cc(Cl)sc23)nn1` [Compound 66]: 0.1 to 0.5 µM; `COc1ccc(-n2cc([C@@H]3C[C@]4(CCN3)OCCc3cc(Cl)sc34)nn2)cc1` [Compound 67]: 0.1 to 0.5 µM; `CN(C)C(=O)c1ccc(-n2cc([C@@H]3C[C@]4(CCN3)OCCc3cc(Cl)sc34)nn2)cc1` [Compound 68]: 0.1 to 0.5 µM. For the molecule `Clc1cc2c(s1)[C@@]1(CCN[C@H](c3cn(-c4ccccn4)nn3)C1)OCC2` [Compound 69], the IC50 is 0.1 to 0.5 µM. As for `Fc1cccc(-n2cc([C@@H]3C[C@]4(CCN3)OCCc3cc(Cl)sc34)nn2)c1` [Compound 70], the IC50 was in the range of 0.1 to 0.5 µM. For `COc1cccc(-n2cc([C@@H]3C[C@]4(CCN3)OCCc3cc(Cl)sc34)nn2)c1` [Compound 71], the IC50 fell in the range of 0.1 to 0.5 µM. `Fc1ccc(-n2cc([C@@H]3C[C@]4(CCN3)OCCc3cc(Cl)sc34)nn2)cc1` [Compound 72]: the IC50 is 0.5 to 1 µM. For `CS(=O)(=O)CCn1cc([C@@H]2C[C@]3(CCN2)OCCc2cc(Cl)sc23)nn1` [Compound 73] the value was 0.5 to 1 µM; for `Fc1ccccc1-n1cc([C@@H]2C[C@]3(CCN2)OCCc2cc(Cl)sc23)nn1` [Compound 74], 0.5 to 1 µM; for `Oc1ccccc1-n1cc([C@@H]2C[C@]3(CCN2)OCCc2cc(Cl)sc23)nn1` [Compound 75], 0.5 to 1 µM. For the molecule `COCCn1cc([C@@H]2C[C@]3(CCN2)OCCc2cc(Cl)sc23)nn1` [Compound 76], the IC50 is 0.5 to 1 µM. Next, `Clc1cc2c(s1)[C@@]1(CCN[C@H](c3c[nH]nn3)C1)OCC2` [Compound 77]: 0.5 to 1 µM.
